Reference: US5512588A, “Furylthiazoles and their use as H2 - receptor antagonists and antimicrobials” (Fujisawa Pharmaceutical Co., Ltd., priority 1991, dated 1996)

What was measured:
[1] = test system: Campylobacter pyloridis 8008; experiment: Test C (Anti-microbial activity), agar dilution method; format: cell-based; settings: Helicobacter pylori, 72 h, Brucella agar plus 5% lysed horse blood, 37° C. for 3 days, 10% CO2, 10^4 cfu/ml
Method: Test C (Anti-microbial activity):
In vitro antimicrobial activity was determined by the agar dilution method. Test strain was precultured in Brucella broth Agar containing 5% horse serum at 37° C. for 3 days, and 10^4 cfu/ml were inoculated with a multipoint replicater onto Brucella agar plus 5% lysed horse blood plate containing serial 2-fold dilutions of each drug at 37° C. for 3 days. Incubation was carried out in an atmosphere of 10% CO2. MIC was read after incubation as the lowest drug concentration that inhibited macroscopic colonial growth.

[2] = test system: H2 -receptor; experiment: Test A (H2 -receptor antagonism in isolated guinea-pig atrium); settings: inhibition of histamine (1×10^-6 g/ml)-induced increase in beating rate, test compound 1×10^-6 g/ml, 30 minutes, 30°C
Method: Test A (H2 -receptor antagonism in isolated guinea-pig atrium):
The atrial strip isolated from guinea-pig was suspended under an initial tension 0.3 to 0.6 g in an organ bath containing Tyrode solution at 30°C., aerated 95% O2 -5% CO2 gas. The beating rate and amplitude of contraction of the atrium were recorded by means of a transducer and a polygraph. Histamine (1×10^-6 g/ml) was added to the bathing fluid and the increase in beating rate after dosing was measured. Addition of test compounds (1×10^-6 g/ml) was made 30 minutes after washing out histamine. Inhibitory effect of test compound was calculated by comparing histamine-induced increases in beating rate before and 30 minutes after dosing with the test compounds.

[3] = test system: histamine-stimulated gastric secretion; experiment: Test B (Gastric secretion from lumen perfused stomach in anesthetized rats); format: in vivo, Male Sprague-Dawley rats; settings: maximal inhibition of acid output, histamine 3 mg/kg/hr i.v., test compound 1 mg/kg intravenously
Method: Test B (Gastric secretion from lumen perfused stomach in anesthetized rats):
Male Sprague-Dawley rats weighing about 250 g were used. Rats were deprived of food but allowed free access to water for 24 hours. The animals were anesthetized with 1.25 g/kg urethane intraperitoneally. The abdomen was opened and the gastric lumen was perfured with saline throughout the experiment. The perfusate was titrated by an autotitrator with 25 mM sodium hydroxide as a titrant. Gastric secretion was stimulated by intravenous infusion with histamine (3 mg/kg/hr). After reaching plateau, test compound (1 mg/kg) was given intravenously. Drug effect was expressed as maximal inhibition by acid output.

[4] = test system: HCl-aspirin ulcer; experiment: Test D (Inhibition of HCl-aspirin ulcer); format: in vivo, male Sprague-Dawley rats; settings: length of ulcers vs control; test compound 32 mg/kg orally 30 minutes before aspirin 200 mg/kg in 0.2N HCl; rats
Method: Test D (Inhibition of HCl-aspirin ulcer):
Seven male Sprague-Dawley rats, aged 6 weeks and weighing about 200 g were used per group for the study on HCl-aspirin ulcer after the fast for 24 hours. Each of the test compounds (32 mg/kg) suspended in 0.1% methylcellulose solution was administered orally 30 minutes before aspirin administration. Aspirin, suspended in 0.1% methylcellulose solution containing 0.2N HCl, was administered orally at a dose of 200 mg/kg/10 ml. One hour later, the animals were sacrificed and their stomachs were removed. The stomach was then fixed with 2% formalin. The length of ulcers was measured for each animal, and percentage of inhibition was calculated by comparing the mean length of ulcers (mm) in the test animals with that in the control animals.

In the case of CCCCCCNC(N)=Nc1nc(-c2ccc(CNC(C)=O)o2)cs1 [Test Compound (b), 4-(5-Acetylaminomethylfuran-2-yl)-2-(amino)(n-hexylamino)methyleneamino!thiazole], the MIC [1] is reported as 0.1 µg/mL and the “H2 Antagonism (%)” value [2] is reported as 78.5%.

For COCCNC(N)=Nc1nc(-c2ccc(CNC(C)=O)o2)cs1 [Test Compound (c), 4-(5-Acetylaminomethylfuran-2-yl)-2-(amino)-(2-methoxyethylamino)methyleneamino!thiazole], the “Inhibition (%)” value [3] was 69%.

With CC(=O)NCc1ccc(-c2csc(N=C(N)NCCc3ccccn3)n2)o1 [Test Compound (d), 4-(5-Acetylaminomethylfuran-2-yl)-2-(amino)-2-(2-pyridyl)ethylamino!methyleneamino!thiazole] the MIC [1] was 0.78 µg/mL.

C=CCNC(N)=Nc1nc(-c2ccc(CNC(C)=O)o2)cs1 [Test Compound (e)] showed an MIC [1] of 0.78 µg/mL.

CCCCNC(N)=Nc1nc(-c2ccc(CNC(C)=O)o2)cs1 [Test Compound (a), 4-(5-Acetylaminomethylfuran-2-yl)-2-(amino)(n-butylamino)methyleneamino!thiazole] was tested, and the “Inhibition (%)” value [4] was 86.9%.
